# Data published in patent publication US7858745B2, “Use of specifically engineered enzymes to enhance the efficacy of prodrugs” (The Board of Trustees of the University of Illinois, priority 2003, dated 2010).
# Key:
# A100V/R104M/D133A-dCK = A100V/R104M/D133A-dCK (Homo sapiens, UniProt P27707, A100V/D133A/R104M); test: Steady-state kinetic assay of deoxycytidine kinase activity, triple mutant enzyme
# Experimental: Since Arg104 plays a role in the already mentioned active site hydrogen-bonding network, its mutation to the uncharged methionine was combined with the compensatory change of Asp133 to an alanine. […] In addition, Ala100 was changed to a valine as is found in dNK.
# All experiments were performed in duplicates.
# Wild Type dCK = Wild Type dCK (Homo sapiens, UniProt P27707); test: Steady-state kinetic assay of deoxycytidine kinase activity, wild type enzyme; conditions: prodrug versus dC
# dCK = dCK (Homo sapiens, UniProt P27707); conditions: versus cladribine; cited from earlier work
# dNK = target: T1, dNK (Drosophila melanogaster, UniProt Q9XZT6); conditions: dC phosphorylation; cited from earlier work
# T1 sequence (Q9XZT6 1-250): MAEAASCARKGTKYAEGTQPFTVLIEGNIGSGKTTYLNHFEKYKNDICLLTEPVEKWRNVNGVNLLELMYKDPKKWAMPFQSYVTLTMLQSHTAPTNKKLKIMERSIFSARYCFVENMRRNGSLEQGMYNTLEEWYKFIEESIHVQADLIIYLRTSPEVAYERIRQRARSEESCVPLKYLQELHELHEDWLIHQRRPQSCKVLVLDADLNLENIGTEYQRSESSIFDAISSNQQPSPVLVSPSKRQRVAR
# NB4 cells = test: Apoptosis assay, NB4; assay type: cell-based; conditions: after 96 hours; AraC 250 nM
# Experimental: (§1) The HuM195 antibody will only bind and internalize to cells expressing CD33. Thus, the HL60 cell line (derived from AML cells) and the NB4 cell line, which are CD33 positive, were used to test the activity of the HuM195-dCK system in live cells. The cells were treated with AraC, the HuM195-dCK conjugate, or the combination of HuM195-dCK and the AraC. Annexin V and propidium iodide (PI) staining was used to identify apoptotic cells.
# The NB4 cells were also treated with AraC, the HuM195-dCK conjugate, or the combination of HuM195-dCK and the AraC, and an apoptosis assay was performed as above. The AraC dose used, however, was decreased from 1000 nM to 250 nM. The results were similar to those observed in the HL60 cells (FIG. 8). The conjugate with AraC (right bars) achieve ˜65% cell killing after 96 hours, whereas AraC alone was below 40%.
# HL60 cell line = test: Annexin V and propidium iodide (PI) staining of apoptotic cells, HL60; assay type: cell-based; conditions: after 96 hours; AraC at 1 μM
# Experimental: as §1
# Wild Type dCK, sequence (P27707 whole entry): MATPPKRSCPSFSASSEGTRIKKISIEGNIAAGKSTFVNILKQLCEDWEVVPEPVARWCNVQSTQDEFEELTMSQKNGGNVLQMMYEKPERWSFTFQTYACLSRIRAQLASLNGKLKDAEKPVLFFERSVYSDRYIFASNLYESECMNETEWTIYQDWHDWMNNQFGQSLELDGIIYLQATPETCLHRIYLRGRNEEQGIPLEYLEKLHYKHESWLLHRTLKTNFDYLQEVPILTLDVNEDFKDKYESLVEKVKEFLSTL
# A100V/R104M/D133A-dCK, sequence (P27707 whole entry A100V/R104M/D133A): as the sequence (P27707 whole entry) above, with A100V, R104M, D133A counted along it
# dCK, sequence (P27707 whole entry): as the sequence (P27707 whole entry) above
structure (smiles),measurement,setting,value
Cc1cn([C@H]2C[C@H](O)[C@@H](CO)O2)c(=O)[nH]c1=O [thymidine],phosphorylation of thymidine by the dCK mutant,"A100V/R104M/D133A-dCK; Arg104 to methionine, Asp133 to alanine",gained the ability to phosphorylate thymidine
"Nc1ccn([C@@H]2O[C@H](CO)[C@@H](O)C2(F)F)c(=O)n1 [gemcitabine, 2′,2′-difurodeoxycytidine]",change in KM compared to dC,Wild Type dCK,slight increase
same,higher enzymatic efficiency for dCK compared to dC,Wild Type dCK,~4 fold
same,increase in the kcat compared to dC,Wild Type dCK,10 fold
same,increase of efficiency of the triple mutant over wild type,A100V/R104M/D133A-dCK; triple mutant versus wild type dCK,~4 fold
"Nc1nc(Cl)nc2c1ncn2[C@@H]1O[C@H](CO)[C@@H](O)[C@@H]1F [clofarabine, 2-chloro-2′-arabino-fluoro-2′-deoxyadenosine]",more efficient substrate for dCK than cladribine,dCK,~3 fold
"Nc1ccn([C@H]2C[C@H](O)[C@@H](CO)O2)c(=O)n1 [dC, deoxycytidine]",kcat,dNK,16.5 s⁻¹
"Nc1ccn([C@@H]2O[C@H](CO)[C@@H](O)[C@@H]2O)c(=O)n1 [ara-C, 1-β-D-arabinofuranosylcytosine]",cell killing,NB4 cells,below 40%
same,cell death,HL60 cell line,50%
